Results taken from ChEMBL document CHEMBL4421736, “INHIBITORS OF SARM1 NADase ACTIVITY AND USES THEREOF” (2018).
Active and inactive are the calls of the source. The calls are words filed in the database; no cut-off is given here.

Legend:
Format in all cases: cell-based
[1] = biological target: T1, NAD(+) hydrolase SARM1 (Homo sapiens) (UniProt Q6SZW1); test: Inhibition of StrepTag-tagged human SARM1 TIR (561 to 724 residues) expressed in HEK293T cells assessed as reduction in NADase activity at 5 uM in presence of NAD+ incubated for 60 mins by LC-MS/MS analysis
T1 sequence (whole entry): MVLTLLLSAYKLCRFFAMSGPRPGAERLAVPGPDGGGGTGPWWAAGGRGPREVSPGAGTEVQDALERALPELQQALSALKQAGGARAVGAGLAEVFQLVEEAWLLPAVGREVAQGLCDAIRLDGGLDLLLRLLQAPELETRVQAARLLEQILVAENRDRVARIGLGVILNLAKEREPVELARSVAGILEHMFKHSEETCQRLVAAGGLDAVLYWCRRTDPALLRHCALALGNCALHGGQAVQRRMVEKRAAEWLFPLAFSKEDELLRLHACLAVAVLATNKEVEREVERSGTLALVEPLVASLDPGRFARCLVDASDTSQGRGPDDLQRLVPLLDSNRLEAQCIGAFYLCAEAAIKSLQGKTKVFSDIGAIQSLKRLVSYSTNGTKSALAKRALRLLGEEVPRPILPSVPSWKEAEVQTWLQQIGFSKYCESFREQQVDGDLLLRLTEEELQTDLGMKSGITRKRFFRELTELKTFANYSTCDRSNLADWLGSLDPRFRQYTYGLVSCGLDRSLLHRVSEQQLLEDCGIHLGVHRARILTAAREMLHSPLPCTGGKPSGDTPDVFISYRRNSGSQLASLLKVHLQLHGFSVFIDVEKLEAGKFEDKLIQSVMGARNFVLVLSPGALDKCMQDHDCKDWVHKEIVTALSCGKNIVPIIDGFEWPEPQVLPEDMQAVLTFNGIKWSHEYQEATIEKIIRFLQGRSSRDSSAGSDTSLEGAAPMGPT

[2] = biological target: T2, NAD(+) hydrolase SARM1 (Mus musculus) (UniProt Q6PDS3); test: Inhibition of SARM1 in CD1 mouse DRG cells assessed as inhibition of axon degeneration by measuring reduction in NAD+ consumption rate at 5 uM added 30 mins prior to D4-Nam addition and measured 4 hrs post D4-Nam addition by LC-MS/MS analysis
T2 sequence (whole entry): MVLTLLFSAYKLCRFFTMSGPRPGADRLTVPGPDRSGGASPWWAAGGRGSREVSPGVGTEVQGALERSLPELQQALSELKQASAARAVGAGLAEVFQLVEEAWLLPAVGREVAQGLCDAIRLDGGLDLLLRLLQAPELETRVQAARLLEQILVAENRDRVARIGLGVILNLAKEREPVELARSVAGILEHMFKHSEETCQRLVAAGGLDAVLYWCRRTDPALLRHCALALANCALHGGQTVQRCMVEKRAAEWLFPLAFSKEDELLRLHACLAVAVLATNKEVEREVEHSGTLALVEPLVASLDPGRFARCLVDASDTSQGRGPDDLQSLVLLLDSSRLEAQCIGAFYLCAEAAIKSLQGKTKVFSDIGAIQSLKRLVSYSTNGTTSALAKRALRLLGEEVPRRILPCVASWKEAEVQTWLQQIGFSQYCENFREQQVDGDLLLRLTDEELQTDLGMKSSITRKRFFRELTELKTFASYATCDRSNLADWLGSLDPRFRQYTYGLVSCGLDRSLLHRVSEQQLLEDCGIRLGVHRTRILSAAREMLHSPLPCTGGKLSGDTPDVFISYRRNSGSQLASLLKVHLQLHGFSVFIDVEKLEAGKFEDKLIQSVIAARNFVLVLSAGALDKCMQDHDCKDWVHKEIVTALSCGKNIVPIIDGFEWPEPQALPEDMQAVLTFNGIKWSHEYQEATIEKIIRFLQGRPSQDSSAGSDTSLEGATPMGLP

[3] = biological target: T2, NAD(+) hydrolase SARM1 (Mus musculus); test: Inhibition of SARM1 in CD1 mouse DRG cells assessed as inhibition of axon degeneration by measuring reduction in NAD+ consumption rate added 30 mins prior to D4-Nam addition and measured 4 hrs post D4-Nam addition by LC-MS/MS analysis
[4] = biological target: T2, NAD(+) hydrolase SARM1 (Mus musculus); test: Inhibition of SARM1 in CD1 mouse DRG cells assessed as inhibition of axon degeneration measured during 6 to 24 hrs by drop culture assay
[5] = biological target: T2, NAD(+) hydrolase SARM1 (Mus musculus); test: Inhibition of SARM1 in CD1 mouse DRG cells assessed as inhibition of axon degeneration measured during 6 to 24 hrs by SEM micrography
[6] = biological target: T1, NAD(+) hydrolase SARM1 (Homo sapiens); test: Substrate activity at StrepTag-tagged human SARM1 TIR (561 to 724 residues) expressed in HEK293T cells assessed as increase in NADase activity in presence of NAD+ incubated for 60 mins by HPLC analysis
[7] = biological target: T1, NAD(+) hydrolase SARM1 (Homo sapiens); test: Inhibition of StrepTag-tagged human SARM1 TIR (561 to 724 residues) expressed in NRK1-HEK293T cells assessed as reduction in NADase activity by measuring NAD consumption at 150 uM pre-incubated up to 120 mins before NAD+ addition and further incubated for 60 mins by HPLC analysis relative to control; design: scale not given: the % may be the effect or the level left
[8] = biological target: T1, NAD(+) hydrolase SARM1 (Homo sapiens); test: Inhibition of StrepTag-tagged human SARM1 TIR (561 to 724 residues) expressed in NRK1-HEK293T cells assessed as reduction in NADase activity by measuring ADPR production at 150 uM pre-incubated up to 120 mins before NAD+ addition and further incubated for 60 mins by HPLC analysis; design: scale not given: the % may be the effect or the level left
[9] = biological target: T1, NAD(+) hydrolase SARM1 (Homo sapiens); test: Inhibition of StrepTag-tagged human SARM1 TIR (561 to 724 residues) expressed in HEK293T cells assessed as reduction in NADase activity at 5 uM in presence of NAD+ incubated for 60 mins by HPLC analysis
[10] = biological target: T1, NAD(+) hydrolase SARM1 (Homo sapiens); test: Inhibition of StrepTag-tagged human SARM1 TIR (561 to 724 residues) expressed in HEK293T cells assessed as reduction in NADase activity at 1 mM in presence of NAD+ incubated for 60 mins by HPLC analysis
[11] = biological target: T1, NAD(+) hydrolase SARM1 (Homo sapiens); test: Substrate activity at StrepTag-tagged human SARM1 TIR (561 to 724 residues) expressed in HEK293T cells assessed as increase in NADase activity at 100 uM in presence of NAD+ incubated for 60 mins by HPLC analysis
[12] = biological target: T1, NAD(+) hydrolase SARM1 (Homo sapiens); test: Inhibition of StrepTag-tagged human SARM1 TIR (561 to 724 residues) expressed in HEK293T cells in presence of NAD+ incubated for 60 mins by chemiluminescence based NAD+ Glo assay

SMILES: CN(C)c1n/c(=N/Cc2ccco2)ss1
- inhibition [1]: Active
- inhibition [2]: Active
- inhibition [3]: Dose-dependent effect
- inhibition [4]: Active
- inhibition [5]: Active

SMILES: NC(=O)C1=CN([C@@H]2O[C@H](COP(=O)(O)OP(=O)(O)OC[C@H]3O[C@@H](n4cnc5c(=O)[nH]cnc54)[C@H](O)[C@@H]3O)[C@@H](O)[C@H]2O)CC=C1
- Activity [6]: Active

SMILES: Cc1c(OCC(F)(F)F)ccnc1CSc1nc2ccccc2[nH]1
- Activity [7]: > 75%
- Activity [8]: > 75%

SMILES: Oc1cc(CNC2CCCCC2)c(O)cc1CNC1CCCCC1
- inhibition [2]: Active

SMILES: Cc1c(OCC(F)(F)F)ccnc1CS(=O)(=O)c1nc2ccccc2[nH]1
- Activity [7]: > 75%
- Activity [8]: > 75%

SMILES: COC(=O)CC1(C(=O)OC)Nc2cc(Cl)c(Cl)cc2S(=O)(=O)N1O (stereo unspecified)
- inhibition [2]: Active

SMILES: O=C1N=C(c2ccccc2)C(c2ccccc2)N1 (stereo unspecified)
- inhibition [2]: Active

SMILES: COCCCOc1ccnc(C[S+]([O-])c2nc3ccccc3[nH]2)c1C (stereo unspecified)
- inhibition [9]: Active

SMILES: Cc1ccc([S+]([O-])c2ccc([N+](=O)[O-])c3nonc23)cc1 (stereo unspecified)
- inhibition [2]: Active

SMILES: Cc1c(OCC(F)(F)F)ccnc1C[S@@+]([O-])c1nc2ccccc2[nH]1
- inhibition [9]: Active

SMILES: NC(=O)C1CCCc2c1[nH]c1ccc(Cl)cc21 (stereo unspecified)
- inhibition [10]: Active
- Activity [6]: inactive

SMILES: CCOC(=O)/C(C#N)=C1\SS/C(=C(/C#N)C(=O)OCC)S1
- inhibition [2]: Active

SMILES: CC(=O)c1cccnc1
- Activity [6]: inactive

SMILES: NC(=O)C1=CN([C@@H]2O[C@H](COP(=O)(O)OP(=O)(O)OC[C@H]3O[C@@H](n4cnc5c(N)ncnc54)[C@H](OP(=O)(O)O)[C@@H]3O)[C@@H](O)[C@H]2O)C=CC1
- Activity [6]: Active
- Activity [11]: Active

SMILES: NC(=O)c1ccccc1
- Activity [6]: inactive

SMILES: NC(=S)c1cccnc1
- Activity [6]: inactive

SMILES: CC1(C)CC[C@]2(C(=O)n3ccnc3)CC[C@]3(C)[C@H](C(=O)C=C4[C@@]5(C)C=C(C#N)C(=O)C(C)(C)[C@@H]5CC[C@]43C)[C@@H]2C1
- inhibition [2]: Active

SMILES: Cc1cc(O)c(-c2cc(O)c(C)cc2O)cc1O
- inhibition [2]: Active

SMILES: COc1ccc2c(c1)nc([S+]([O-])Cc1ncc(C)c(OC)c1C)n2C (stereo unspecified)
- Activity [7]: > 75%
- Activity [8]: > 75%

SMILES: O=C1NC(=O)C(=Cc2csc3ccccc23)C(=O)N1
- inhibition [2]: Active

SMILES: Cc1cnc(C[S@@+]([O-])c2nc3ccccc3[nH]2)c(C)c1OCC(F)(F)F
- Activity [7]: > 75%
- Activity [8]: < 50%

SMILES: COc1cnc2[nH]c([S+]([O-])Cc3ncc(C)c(OC)c3C)nc2c1 (stereo unspecified)
- Activity [7]: > 75%
- Activity [8]: 50 to 75%

SMILES: Cn1c2ccccc2c2ccc3c(c21)C(=O)C=CC3=O
- inhibition [2]: Active

SMILES: CCOc1ccc(NC(=O)C2CCCN(C)C2)cc1 (stereo unspecified)
- inhibition [2]: Active

SMILES: O=C(c1ccccc1)C1C(c2ccccc2)C1[N+](=O)[O-] (stereo unspecified)
- inhibition [2]: Active

SMILES: COc1ccc2[nH]c([S+]([O-])Cc3ncc(C)c(OC)c3C)nc2n1 (stereo unspecified)
- inhibition [9]: Active
- Activity [7]: 50 to 75%
- Activity [8]: < 50%

SMILES: NC(=O)C1=CN([C@@H]2O[C@H](COP(=O)(O)OP(=O)(O)OC[C@H]3O[C@@H](n4cnc5c4ncn4ccnc54)[C@H](O)[C@@H]3O)[C@@H](O)[C@H]2O)CC=C1
- inhibition [10]: Active
- Activity [6]: inactive

SMILES: COc1ccc2c(c1)c1ccc3c(c1n2C)C(=O)C=CC3=O
- inhibition [2]: Active

SMILES: Cc1ccc2c(c1)c1ccc3c(c1n2C)C(=O)C=CC3=O
- inhibition [2]: Active

SMILES: NC(=O)c1ccc(N)nc1
- Activity [6]: inactive

SMILES: O=Cc1cccnc1
- Activity [6]: inactive

SMILES: CC1=C(O)C(=O)C=C2C1=CC=C1[C@@]2(C)CC[C@@]2(C)[C@@H]3C[C@](C)(C(=O)O)CC[C@]3(C)CC[C@]12C
- inhibition [2]: Active

SMILES: O=C1NC(=O)C(=Cc2ccc3ccccc3c2)C(=O)N1
- inhibition [2]: Active

SMILES: COc1ccc2[nH]c([S+]([O-])Cc3ncc(C)c(OC)c3C)nc2c1 (stereo unspecified)
- inhibition [9]: Active

SMILES: CCN(CC)c1ccc(C=C2C(=O)NC(=S)NC2=O)cc1
- inhibition [2]: Active

SMILES: CN(C)c1n/c(=N/c2cccc(Cl)c2)ss1
- inhibition [12]: Active
- inhibition [1]: Active
- inhibition [2]: Active

SMILES: Cc1cccc2c1c1ccc3c(c1n2C)C(=O)C=CC3=O
- inhibition [2]: Active

SMILES: COc1ccnc(C[S+]([O-])c2nc3cc(OC(F)F)ccc3[nH]2)c1OC (stereo unspecified)
- inhibition [9]: Active

SMILES: O=[N+]([O-])c1ccc(Sc2cccc[n+]2[O-])c2nonc12
- inhibition [2]: Active

SMILES: Cc1c(OCC(F)(F)F)ccnc1C[S+]([O-])c1nc2ccccc2[nH]1 (stereo unspecified)
- inhibition [9]: Active
